{
  "source": "patent US8232313B2",
  "about": "(Georgia Health Sciences University, priority 2003, dated 2012)",
  "key": {"B16F10 melanomas": {"test_system": "B16F10 melanomas", "assay": "Established B16F10 melanoma in mice, 1MT with radiation or cyclophosphamide", "format": "in vivo, mouse", "method": "FIGS. 11A-11D. Administration of 1-MT enhances immune-mediated host anti-tumor effect when administered with radiation or cyclophosphamide. Mice were injected subcutaneously (SQ) with 4×10^4 B16F10 cells. […] Control mice received vehicle pellets without drug.\nNot unexpected, given that the tumor had already been allowed to create tolerance in the host."}, "IDO [1]": {"test_system": "IDO", "assay": "Recall MLR of LN cells from recipients of TDLN DCs, 1MT added to the MLR", "details": "responders from recipients of TDLN DCs", "description": "Inguinal LN cells from recipient mice were assayed for functional responsiveness using MLRs stimulated by irradiated C57BL/6 (H-2K^b-positive) splenocytes."}, "[2]": {"test_system": "Lewis Lung carcinoma (LLC)", "details": "administration of 1-MT; cited from earlier work"}, "[3]": {"assay": "Comparative plasma pharmacokinetics of the stereoisomers of 1-MT", "format": "in vivo, mice", "details": "for time to peak plasma concentrations: after PO administration, 50 mg/kg", "method": "Comparative pharmacokinetic studies were initiated to characterize the in vivo disposition of the stereoisomers of 1-MT when administered by different routes, to determine the oral bioavailability, and to define the plasma concentrations associated with effective dosing regimens. Studies were conducted in conventional mice after IV, PO and SC doses of 50 mg/kg, and IP doses of 25 mg/kg, 50 mg/kg, and 100 mg/kg. In addition, plasma concentrations of 1-MT were determined in nude mice with implanted timed-release pellets designed to release the DL isomer for 7 days, and the D isomer for 14 days."}, "[4]": {"assay": "Pilot tissue biodistribution of D and L isomers after DL racemic infusion", "format": "in vivo, Mice", "details": "DL racemic 10 mg/day, 72 hour infusion", "from_the_text": "The results noted with spleen are particularly relevant because it is a lymphoid organ, and thus likely to be similar to tumor-draining lymph nodes."}, "[5]": {"target": "indoleamine 2,3-dioxygenase (IDO) (Homo sapiens, UniProt P14902)", "sequence (P14902 whole entry)": "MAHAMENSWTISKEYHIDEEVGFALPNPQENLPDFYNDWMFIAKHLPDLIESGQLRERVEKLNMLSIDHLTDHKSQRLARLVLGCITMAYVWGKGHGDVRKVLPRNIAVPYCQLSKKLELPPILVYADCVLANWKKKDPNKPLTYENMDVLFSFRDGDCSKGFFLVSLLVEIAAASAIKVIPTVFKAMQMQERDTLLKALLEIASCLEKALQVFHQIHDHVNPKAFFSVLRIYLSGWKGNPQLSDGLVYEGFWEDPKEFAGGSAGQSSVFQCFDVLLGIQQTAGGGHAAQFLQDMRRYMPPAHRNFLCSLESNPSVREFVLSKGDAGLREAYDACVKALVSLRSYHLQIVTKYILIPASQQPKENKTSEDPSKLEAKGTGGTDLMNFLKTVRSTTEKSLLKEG", "assay": "Allogeneic mixed-leukocyte reaction (MLR) with IDO-expressing human DCs, T cell proliferation by thymidine incorporation", "details": "250 uM in culture medium", "description": "After five days, proliferation was measured by four hour thymidine incorporation assay. “V”-bottom culture wells (Nunc) were used in MLR assays to maximize cell-cell contact.\nDCs were used as stimulators in allogeneic mixed-leukocyte reactions (MLRs), with allogeneic lymphocytes as responder cells."}, "IDO [6]": {"target": "IDO (Mus musculus, UniProt P28776)", "sequence (P28776 whole entry)": "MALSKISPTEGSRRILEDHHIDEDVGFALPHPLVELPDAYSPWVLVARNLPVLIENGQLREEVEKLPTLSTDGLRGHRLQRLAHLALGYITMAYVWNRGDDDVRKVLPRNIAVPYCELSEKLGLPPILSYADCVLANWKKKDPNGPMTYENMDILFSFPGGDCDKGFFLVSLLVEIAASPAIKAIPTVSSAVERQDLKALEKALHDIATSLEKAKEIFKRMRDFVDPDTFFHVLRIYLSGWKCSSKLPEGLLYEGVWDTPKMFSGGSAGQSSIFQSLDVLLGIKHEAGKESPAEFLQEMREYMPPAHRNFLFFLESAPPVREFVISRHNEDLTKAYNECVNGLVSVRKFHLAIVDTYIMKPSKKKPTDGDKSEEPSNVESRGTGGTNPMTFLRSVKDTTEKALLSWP", "assay": "MLR with sorted tumor-draining LN cells (pDCs) as stimulators and BM3 responder T cells", "details": "250 uM", "description": "T cell activation in MLR. BM3 responder T cells were prepared from spleen by nylon-wool enrichment. Stimulators (sorted DCs or unfractionated TDLN) were mixed with 1×10^5 BM3 responder cells in 200 ul IMDM at the ratios shown in each figure. After 3 days, proliferation was measured by 4-hour thymidine incorporation assay.\nMLRs were thus “two-way” reactions. However, the small number of sorted DCs used as stimulators contributed negligible proliferation compared to the large population of TCR-transgenic responder cells. Since the relevant readout was dominant suppression, the two-way MLR design presented no problem in interpretation.\nPooled draining LN cells (4 nodes) were stained and fractionated by 4-color MoFlo cell sorting for the two populations shown in the schematic of FIG. 5B. All other cells were collected in a third fraction. Each fraction was then used as stimulators in MLRs, using 50,000 BM3 T cells as responders. The number of stimulators used in each MLR was adjusted to be the same as would have been present in 50,000 cells of the original LN preparation, based on the measured percentage of each sorted fraction. Thus, 500 cells of the sorted B220^+ CD11c^+ fraction were added per well, and 1500 cells of the CD25^+ CD4^+ fraction, while 48,000 cells of the “all other” fraction were used."}},
  "note": "Entries after “also recorded” stand apart in the source; their conditions may differ.",
  "data": [
    {"compound": "Cn1cc(C[C@H](N)C(=O)O)c2ccccc21", "note": "(racemic) [1MT, 1-methyl-tryptophan]", "values": [
      {"measurement": "tumor growth, 1MT with total-body radiation", "setting": "B16F10 melanomas; DL racemic 20 mg/day plus 500 cGy single dose", "result": "significantly reduce tumor growth"},
      {"measurement": "tumor growth, 1MT with cyclophosphamide", "setting": "B16F10 melanomas; DL racemic 20 mg/day plus cyclophosphamide 150 mg/kg x 1 dose", "result": "significantly reduce tumor growth"},
      {"measurement": "effect of 1MT alone on established tumor", "setting": "B16F10 melanomas; DL racemic form, 20 mg per mouse per day, SQ pellets, from day 7", "result": "no effect"},
      {"measurement": "effect of 1MT over cyclophosphamide alone in RAG1-knockout hosts", "setting": "B16F10 melanomas; immunodeficient (RAG1-knockout) hosts", "result": "no enhancing effect"},
      {"measurement": "effect of 1MT alone, replicated radiation studies", "setting": "B16F10 melanomas; replicate of FIG. 11A design", "result": "no effect"},
      {"measurement": "effect of 1MT on suppression in recall MLRs", "setting": "IDO [1]", "result": "no effect; also recorded: not restored"},
      {"measurement": "tumor outgrowth", "setting": "[2]", "result": "significantly delayed"}
    ]},
    {"compound": "Cn1cc(C[C@@H](N)C(=O)O)c2ccccc21", "note": "[1-methyl-D-tryptophan]", "values": [
      {"measurement": "effect of combination with radiation versus radiation alone, replicated studies", "setting": "B16F10 melanomas; replicate of FIG. 11A design", "result": "enhanced effect over radiation alone"},
      {"measurement": "time to peak plasma concentrations", "setting": "[3]", "result": 2, "unit": "h"},
      {"measurement": "apparent volume of distribution", "setting": "[3]; relative to L isomer", "result": "relatively greater"},
      {"measurement": "distribution into muscle, D and L isomers", "setting": "[4]", "result": "equivalent distribution"},
      {"measurement": "distribution into spleen, D and L isomers", "setting": "[4]", "result": "equivalent distribution"},
      {"measurement": "level in brain, D versus L isomer", "setting": "[4]", "result": "lower levels"},
      {"measurement": "level in plasma, D versus L isomer", "setting": "[4]", "result": "lower levels"},
      {"measurement": "accumulation in liver, D versus L isomer", "setting": "[4]; SQ pellets, initial results", "result": "at least equal, and possibly preferential, accumulation"}
    ]},
    {"compound": "Cn1cc(C[C@H](N)C(=O)O)c2ccccc21", "note": "[L 1-MT, reference compound]", "values": [
      {"measurement": "time to peak plasma concentrations", "setting": "[3]", "result": 2, "unit": "h"}
    ]},
    {"compound": "N[C@@H](Cc1c[nH]c2ccccc12)C(=O)O", "note": "[L-tryptophan]", "values": [
      {"measurement": "DC-mediated inhibition of T cell proliferation on addition of supra-physiologic tryptophan", "setting": "[5]", "result": "completely reversed"},
      {"measurement": "suppression by pDCs with excess L-tryptophan", "setting": "IDO [6]; 10x", "result": "abrogated; also recorded: abrogates suppression"},
      {"measurement": "effect of 10x L-tryptophan with pDCs from IDO-knockout hosts", "setting": "IDO [6]; IDO-KO", "result": "no effect"}
    ]}
  ]
}
